Data published in PubChem BioAssay AID792 (PCMD, 2007).
Records with an inconclusive call do not appear. Activity calls are given as the source filed them. The rule behind the calls is not given here.

Biological target: S. cerevisiae eIF2B mutant, luciferase reporter luminescence
Assay: potency on yeast eIF2B luminescence signal – S. cerevisiae, mutant, wild-type, growth, dose response (AID 792)
[1] = measured here: mutant yeast growth
[2] = S. cerevisiae wild-type, luminescence

CCCS(=O)(=O)N1CCC(C(=O)NCCc2ccc(C)cc2)CC1
IC50: > 100 µM (inactive) | IC50 [1]: > 100 µM

CNC(=O)CCn1nc(-c2ccccc2)c2ccccc2c1=O
IC50: > 100 µM (inactive) | IC50 [1]: > 100 µM

Cc1cc(C(=O)Nc2ccccc2)oc1C
IC50: inactive | IC50 [2]: 84.2 µM | IC50 [1]: > 100 µM

COC(=O)c1cn(CCOc2ccccc2)c2ccccc12
IC50: > 100 µM (inactive) | IC50 [1]: > 100 µM

O=C(c1c[nH]c2ccc(S(=O)(=O)N3CCOCC3)cc2c1=O)N1CCCC1
IC50: > 100 µM (inactive) | IC50 [1]: > 100 µM

Cc1ccc(S(=O)(=O)n2nc(OC(=O)c3ccco3)cc2N)cc1
IC50: > 100 µM (inactive) | IC50 [1]: > 100 µM

COC(=O)c1cc2occc2n1CC(=O)Nc1ccc(OC)c(OC)c1
IC50: > 100 µM (inactive) | IC50 [1]: > 100 µM

O=c1/c(=C/c2ccc(CNS(=O)(=O)c3ccccc3)o2)sc2n1CCN=2
IC50: > 100 µM (inactive) | IC50 [1]: > 100 µM

CCC(=O)N1CCc2cc(S(=O)(=O)NC(C(=O)NCc3ccccc3)C(C)C)ccc21 (stereo unspecified)
IC50: > 100 µM (inactive) | IC50 [1]: > 100 µM

COc1cc(C(=S)N2CCCC2)cc(OC)c1O
IC50: > 100 µM (inactive) | IC50 [1]: > 100 µM

CCOC(=O)c1c(C)[nH]c(C(=O)Nc2ccc3c(c2)OCO3)c1C
IC50: > 100 µM (inactive) | IC50 [1]: > 100 µM

CCOC(=O)c1cc(S(=O)(=O)N2CCN(C(=O)OCC)CC2)cn1C
IC50: > 100 µM (inactive) | IC50 [1]: > 100 µM

Cc1ccc2c(c1)C1CN(C)CCC1N2C(=O)Nc1cccc(Cl)c1 (stereo unspecified)
IC50: > 100 µM (inactive) | IC50 [1]: > 100 µM

COc1ccc(CCNC(=O)c2ccc(N3CCCC3=O)cc2)cc1OC
IC50: > 100 µM (inactive) | IC50 [2]: > 100 µM | IC50 [1]: > 100 µM

Nn1c(COc2cccc(Br)c2)nnc1SCC(=O)N1CCc2ccccc2C1
IC50: > 100 µM (inactive) | IC50 [1]: > 100 µM

CCCCN(Cc1ccccc1)S(=O)(=O)c1ccc2[nH]c(=O)oc2c1
IC50: > 100 µM (inactive) | IC50 [1]: > 100 µM

O=C(O)c1cc2c(ccc3ccccc32)[nH]1
IC50: > 100 µM (inactive) | IC50 [1]: > 100 µM

CCOC(=O)CC1=NC(=O)CS1
IC50: > 100 µM (inactive) | IC50 [1]: > 100 µM

N#CC1=C(SCC(=O)c2ccc(Cl)cc2)NC2=C(C(=O)CCC2)C1c1ccco1 (stereo unspecified)
IC50: > 100 µM (inactive) | IC50 [1]: > 100 µM

CCn1c(SCC(=O)Nc2oc(-c3ccccc3)c(-c3ccccc3)c2C#N)nnc1-c1ccco1
IC50: > 100 µM (inactive) | IC50 [1]: > 100 µM

O=C(c1ccc(Br)o1)N1CCCc2ccccc21
IC50: > 100 µM (inactive) | IC50 [1]: > 100 µM

NC(=O)Cn1c(=O)n(Cc2ccco2)c(=O)c2c3c(sc21)CCCCC3
IC50: > 100 µM (inactive) | IC50 [1]: > 100 µM

Cc1ccc(Cn2nnnc2CN2CCC(O)(c3ccc(F)cc3)CC2)cc1
IC50: > 100 µM (inactive) | IC50 [1]: > 100 µM

COC(=O)c1nn2c(C(F)(F)F)cc(-c3ccc(Br)o3)nc2c1Br
IC50: > 100 µM (inactive) | IC50 [1]: > 100 µM

CCOc1ccc(C2NC(=O)NC(C)=C2C(=O)OC)cc1C (stereo unspecified)
IC50: inactive | IC50 [1]: 33.3 µM

Cc1cccc(Cn2cnc3c(nnn3Cc3ccc(Cl)cc3)c2=O)c1
IC50: > 100 µM (inactive) | IC50 [1]: > 100 µM

Cc1cc2n(n1)SC(Nc1ccccc1)N2 (stereo unspecified)
IC50: > 100 µM (inactive) | IC50 [1]: > 100 µM

CCC(=O)NCCSc1c[nH]c2ccccc12
IC50: > 100 µM (inactive) | IC50 [1]: > 100 µM

O=C(NCc1ccco1)c1sc(=S)n2c1[nH]c(=O)c1ccccc12
IC50: > 100 µM (inactive) | IC50 [1]: > 100 µM

CCN(CC)c1ncnc2sc(C(=O)N3CCN(c4ccc(OC)cc4)CC3)c(C)c12
IC50: > 100 µM (inactive) | IC50 [1]: > 100 µM

O=C(Nc1ccc(Sc2ccc(Br)cc2)cc1)c1ccco1
IC50: > 100 µM (inactive) | IC50 [1]: > 100 µM

N#Cc1c(/N=C/c2cc(Br)cs2)sc2c1CCC2
IC50: > 100 µM (inactive) | IC50 [1]: > 100 µM

c1ccc(SCc2nc(-c3ccccn3)no2)cc1
IC50: > 100 µM (inactive) | IC50 [1]: > 100 µM

CN(CCO)c1nc(N)c2c(N)nc3c(c2c1C#N)CC(=O)N3C1CCCC1
IC50: > 100 µM (inactive) | IC50 [1]: > 100 µM

Cn1ncc(C#N)c1/N=C/N1CCOCC1
IC50: > 100 µM (inactive) | IC50 [1]: > 100 µM

CCOC(=O)C1=C(C)NC(C)=C(C(=O)OCC)C1C(=O)OCC(=O)N1CCc2ccccc2C1
IC50: > 100 µM (inactive) | IC50 [1]: > 100 µM

C=CCn1c(SCc2c(Cl)cccc2Cl)nnc1-c1cccnc1
IC50: > 100 µM (inactive) | IC50 [1]: > 100 µM

Cn1c(SC2C(=O)CC(C)(C)CC2=O)nnc1-c1ccco1
IC50: > 100 µM (inactive) | IC50 [1]: > 100 µM

CN(Cc1c(F)cccc1Cl)c1ccc(S(=O)(=O)N2CCOCC2)cn1
IC50: > 100 µM (inactive) | IC50 [1]: > 100 µM

COc1ccccc1NC(=O)c1cc2ccccc2o/c1=N\O
IC50: > 100 µM (inactive) | IC50 [1]: > 100 µM

Nc1nnnn1/N=C/c1ccc(O)cc1
IC50: inactive | IC50 [2]: 2.78 µM | IC50 [1]: > 100 µM

CSc1ccccc1NC(=O)c1noc2c1CCC2
IC50: > 100 µM (inactive) | IC50 [1]: > 100 µM

CNC(=O)Cn1nc(-c2ccc(C)c(S(=O)(=O)N(C)C)c2)c2ccccc2c1=O
IC50: > 100 µM (inactive) | IC50 [1]: > 100 µM

Cc1nn(-c2ccccc2)c2c1C(c1c(C)[nH]c(C#N)c1C)C(C#N)=C(N)O2 (stereo unspecified)
IC50: > 100 µM (inactive) | IC50 [1]: > 100 µM

CC1(C)CC(=O)c2cc(OCC(=O)NCCCN3CCN(c4ccccc4F)CC3)ccc2O1
IC50: > 100 µM (inactive) | IC50 [1]: > 100 µM

O=C(Cn1nnc(-c2ccc(Cl)cc2)n1)NC1CC2CCC1C2 (stereo unspecified)
IC50: > 100 µM (inactive) | IC50 [1]: > 100 µM

O=C(CCSc1nnc(-c2ccco2)o1)Nc1ccc(Cl)cc1
IC50: > 100 µM (inactive) | IC50 [1]: > 100 µM

Cc1ccc(S(=O)(=O)N2CCOCC2)cc1C(=O)NCc1ccco1
IC50: > 100 µM (inactive) | IC50 [1]: > 100 µM

COc1ccccc1-n1nc(C(=O)Nc2ccc3c(c2)OCO3)c2ccccc2c1=O
IC50: > 100 µM (inactive) | IC50 [1]: > 100 µM

Cc1c(C(=O)N2CCCC2)sc(NC(=O)c2ccc(Cl)cc2)c1C#N
IC50: > 100 µM (inactive) | IC50 [1]: > 100 µM

Nc1nc(NCc2ccccc2)nc(-c2ccccc2)n1
IC50: > 100 µM (inactive) | IC50 [1]: > 100 µM

COc1cc(OC)nc(NC(=O)CCl)n1
IC50: > 100 µM (inactive) | IC50 [1]: > 100 µM

COCCN1CN(S(=O)(=O)c2ccc(Cl)cc2)c2nc3ccccc3nc21
IC50: > 100 µM (inactive) | IC50 [1]: > 100 µM

O=C(Nc1ccccc1N1CCN(C(=O)c2ccccc2)CC1)c1cc2ccccc2o1
IC50: > 100 µM (inactive) | IC50 [1]: > 100 µM

COc1ccccc1CC(=O)N1CCN(c2cccc(C(F)(F)F)c2)CC1
IC50: > 100 µM (inactive) | IC50 [1]: > 100 µM

Cc1ccc(-c2cn(S(=O)(=O)c3cccc4nsnc34)nc2N)cc1
IC50: > 100 µM (inactive) | IC50 [1]: > 100 µM

Cc1c(C(=O)N2CCN(c3ccccc3F)CC2)sc2nc(-c3ccccc3)cn12
IC50: > 100 µM (inactive) | IC50 [1]: > 100 µM

CN(C)c1nc(N(C)C)nc(N(C#N)CCOc2ccccc2)n1
IC50: > 100 µM (inactive) | IC50 [1]: > 100 µM

CCCOc1ccc(C(=O)N2CCCc3ccccc32)cc1
IC50: > 100 µM (inactive) | IC50 [1]: > 100 µM

CCCCNC(=O)OC1CCS(=O)(=O)C1 (stereo unspecified)
IC50: > 100 µM (inactive) | IC50 [1]: > 100 µM

Cc1csc(NC(=O)c2cccn2C)n1
IC50: inactive | IC50 [2]: 16.4 µM | IC50 [1]: > 100 µM

O=c1c(-c2cc3ccccc3o2)[n+]([O-])c2ccccc2n1OCc1ccccn1
IC50: > 100 µM (inactive) | IC50 [1]: > 100 µM

C=CCn1c(N)cc(=O)nc1SCC(=O)Nc1ccccc1
IC50: > 100 µM (inactive) | IC50 [1]: > 100 µM

CCOC(=O)Cc1csc(NC(NC(=O)CC)(C(F)(F)F)C(F)(F)F)n1
IC50: > 100 µM (inactive) | IC50 [1]: > 100 µM

C=CCN(Cc1cccc(OC)c1OC)S(=O)(=O)N(C)C
IC50: > 100 µM (inactive) | IC50 [1]: > 100 µM

CCN(CC)c1ncnc2sc(C(=O)N3CCN(c4ccccc4)CC3)c(C)c12
IC50: > 100 µM (inactive) | IC50 [1]: > 100 µM

O=C(CCN1CCN(C(=O)c2ccco2)CC1)Nc1ccc(F)cc1
IC50: > 100 µM (inactive) | IC50 [1]: > 100 µM

CCOC(=O)N1CCN(C(=O)c2ccc(N3CCCC3=O)cc2)CC1
IC50: > 100 µM (inactive) | IC50 [1]: > 100 µM

CC1(C)CC(=O)C=C(NCCCNC2CCCCC2)C1
IC50: > 100 µM (inactive) | IC50 [1]: > 100 µM

CCCCC(=O)Nc1ccc(N2CCN(S(C)(=O)=O)CC2)cc1
IC50: > 100 µM (inactive) | IC50 [1]: > 100 µM

Cc1cc(C)c(NC(=O)CSc2nnc(Cc3cccn3C)n2-c2ccc(F)cc2)c(C)c1
IC50: > 100 µM (inactive) | IC50 [1]: > 100 µM

COc1cccc(C2NC(CC(C)C)(C(=O)O)C3C(=O)N(Cc4ccccc4)C(=O)C23)c1O (stereo unspecified)
IC50: > 100 µM (inactive) | IC50 [1]: > 100 µM

CCCOCC1CC2(CC(C)(c3csc(N)n3)OC2=O)C(=O)O1 (stereo unspecified)
IC50: > 100 µM (inactive) | IC50 [1]: > 100 µM

CN1CCN(C(=O)CSc2nc(-c3ccncc3)ccc2C#N)CC1
IC50: > 100 µM (inactive) | IC50 [1]: > 100 µM

CCCC1CC(C)(c2csc(Nc3ccc(OCC)cc3)n2)OC1=O (stereo unspecified)
IC50: > 100 µM (inactive) | IC50 [1]: > 100 µM

COc1ccc(C(=O)Nn2c(C)nnc2-n2nc(C)cc2C)cc1OC
IC50: > 100 µM (inactive) | IC50 [1]: > 100 µM

Cc1cccn2c(=O)c3cc(C(=O)N4c5ccccc5CC4C)n(C)c3nc12 (stereo unspecified)
IC50: > 100 µM (inactive) | IC50 [1]: > 100 µM

CC(C)CCNC1=NCCCCC1
IC50: > 100 µM (inactive) | IC50 [1]: > 100 µM

CCOCC(=O)Nc1cccc(NC(C)=O)c1
IC50: > 100 µM (inactive) | IC50 [1]: > 100 µM

O=C(Nc1cccnc1)c1cc(-c2ccco2)on1
IC50: > 100 µM (inactive) | IC50 [1]: > 100 µM

N#CCN1CCN(CC(=O)Nc2ccc(OCc3ccccc3)cc2)CC1
IC50: > 100 µM (inactive) | IC50 [1]: > 100 µM
